Experiments:
Assay in all cases: relative viability (nuclei count vs DMSO), 5 days (fraction); higher = more cells survive
COR-L23 = system: COR-L23
Summary of the method: (§1)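 Relative viability was taken as the ratio of nuclei in treated wells to nuclei in vehicle wells. Lung cancer cell lines in 1536-well plates received compounds by pin tool one day after seeding, either one drug alone or a fixed anchor-drug dose plus five library-drug doses (not always all listed) in √10 steps. Nuclei were counted on 4× images after 5 days of treatment, and values are medians of duplicate plates.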

EPLC-272H = system: EPLC-272H
Summary of the method: as §1

NCI-H647 = system: NCI-H647
Summary of the method: as §1

NCI-H2347 = system: NCI-H2347
Summary of the method: as §1

NCI-H441 = system: NCI-H441
Summary of the method: as §1

NCI-H3122 = system: NCI-H3122
Summary of the method: as §1

NCI-H2023 = system: NCI-H2023
Summary of the method: as §1

NCI-H1734 = system: NCI-H1734
Summary of the method: as §1

H3255 = system: H3255
Summary of the method: as §1

UMC-11 = system: UMC-11
Summary of the method: as §1

HCC-15 = system: HCC-15
Summary of the method: as §1

NCI-H2170 = system: NCI-H2170
Summary of the method: as §1

NCI-H322M = system: NCI-H322M
Summary of the method: as §1

NCI-H2405 = system: NCI-H2405
Summary of the method: as §1

PC-14 = system: PC-14
Summary of the method: as §1

LOU-NH91 = system: LOU-NH91
Summary of the method: as §1

NCI-H1793 = system: NCI-H1793
Summary of the method: as §1

201T = system: 201T
Summary of the method: as §1

NCI-H520 = system: NCI-H520
Summary of the method: as §1

SW 900 = system: SW 900
Summary of the method: as §1

NCI-H1650 = system: NCI-H1650
Summary of the method: as §1

In the case of O=c1cc(N2CCOCC2)oc2c(-c3cccc4c3sc3ccccc34)cccc12 + CC(=O)Nc1cccc(-n2c(=O)n(C3CC3)c(=O)c3c(Nc4ccc(I)cc4F)n(C)c(=O)c(C)c32)c1 [Trametinib] (partner 0.02 µM), the relative viability (COR-L23; first compound 0.01 µM) is reported as 0.617, the relative viability (COR-L23; first compound 0.03162 µM) is reported as 0.614 and the relative viability (COR-L23; first compound 0.1 µM) is reported as 0.552. The relative viability (COR-L23; first compound 0.3162 µM) was 0.633, the relative viability (COR-L23; first compound 1 µM) was 0.655 and the relative viability (EPLC-272H; first compound 0.01 µM) was 0.301. It also gave a relative viability (EPLC-272H; first compound 0.03162 µM) of 0.285, a relative viability (EPLC-272H; first compound 0.1 µM) of 0.333 and a relative viability (EPLC-272H; first compound 0.3162 µM) of 0.284. The relative viability (EPLC-272H; first compound 1 µM) was 0.279, the relative viability (NCI-H647; first compound 0.01 µM) was 0.503 and the relative viability (NCI-H647; first compound 0.03162 µM) was 0.489. It also gave a relative viability (NCI-H647; first compound 0.1 µM) of 0.487, a relative viability (NCI-H647; first compound 0.3162 µM) of 0.449 and a relative viability (NCI-H647; first compound 1 µM) of 0.472. For the same molecule, the relative viability (NCI-H2347; first compound 0.01 µM) was 0.263, the relative viability (NCI-H2347; first compound 0.03162 µM) was 0.287 and the relative viability (NCI-H2347; first compound 0.1 µM) was 0.269. The relative viability (NCI-H2347; first compound 0.3162 µM) was 0.309, the relative viability (NCI-H2347; first compound 1 µM) was 0.229 and the relative viability (NCI-H441; first compound 0.01 µM) was 0.513. For the same molecule, the relative viability (NCI-H441; first compound 0.03162 µM) was 0.431, the relative viability (NCI-H441; first compound 0.1 µM) was 0.406 and the relative viability (NCI-H441; first compound 0.3162 µM) was 0.479. For the same molecule, the relative viability (NCI-H441; first compound 1 µM) was 0.42, the relative viability (NCI-H3122; first compound 0.01 µM) was 0.217 and the relative viability (NCI-H3122; first compound 0.03162 µM) was 0.225. For the same molecule, the relative viability (NCI-H3122; first compound 0.1 µM) was 0.245, the relative viability (NCI-H3122; first compound 0.3162 µM) was 0.216 and the relative viability (NCI-H3122; first compound 1 µM) was 0.202. The relative viability (NCI-H2023; first compound 0.01 µM) was 0.676, the relative viability (NCI-H2023; first compound 0.03162 µM) was 0.574 and the relative viability (NCI-H2023; first compound 0.1 µM) was 0.624. It also gave a relative viability (NCI-H2023; first compound 0.3162 µM) of 0.601, a relative viability (NCI-H2023; first compound 1 µM) of 0.396 and a relative viability (NCI-H1734; first compound 0.01 µM) of 0.772. The relative viability (NCI-H1734; first compound 0.03162 µM) was 0.747, the relative viability (NCI-H1734; first compound 0.1 µM) was 0.637 and the relative viability (NCI-H1734; first compound 0.3162 µM) was 0.69. It also gave a relative viability (NCI-H1734; first compound 1 µM) of 0.758, a relative viability (H3255; first compound 0.01 µM) of 0.548 and a relative viability (H3255; first compound 0.03162 µM) of 0.691. It also gave a relative viability (H3255; first compound 0.1 µM) of 0.675, a relative viability (H3255; first compound 0.3162 µM) of 0.703 and a relative viability (H3255; first compound 1 µM) of 0.552. The relative viability (UMC-11; first compound 0.01 µM) was 0.734, the relative viability (UMC-11; first compound 0.03162 µM) was 0.741 and the relative viability (UMC-11; first compound 0.1 µM) was 0.773. It also gave a relative viability (UMC-11; first compound 0.3162 µM) of 0.756, a relative viability (UMC-11; first compound 1 µM) of 0.832 and a relative viability (HCC-15; first compound 0.01 µM) of 0.384. The relative viability (HCC-15; first compound 0.03162 µM) was 0.388, the relative viability (HCC-15; first compound 0.1 µM) was 0.288 and the relative viability (HCC-15; first compound 0.3162 µM) was 0.368. The relative viability (HCC-15; first compound 1 µM) was 0.364, the relative viability (NCI-H2170; first compound 0.01 µM) was 0.895 and the relative viability (NCI-H2170; first compound 0.03162 µM) was 0.897. It also gave a relative viability (NCI-H2170; first compound 0.1 µM) of 0.982, a relative viability (NCI-H2170; first compound 0.3162 µM) of 0.801 and a relative viability (NCI-H2170; first compound 1 µM) of 0.889. It also gave a relative viability (NCI-H322M; first compound 0.01 µM) of 0.494, a relative viability (NCI-H322M; first compound 0.03162 µM) of 0.486 and a relative viability (NCI-H322M; first compound 0.3162 µM) of 0.495. For the same molecule, the relative viability (NCI-H322M; first compound 1 µM) was 0.494, the relative viability (NCI-H2405; first compound 0.01 µM) was 0.751 and the relative viability (NCI-H2405; first compound 0.03162 µM) was 0.664. The relative viability (NCI-H2405; first compound 0.1 µM) was 0.631, the relative viability (NCI-H2405; first compound 0.3162 µM) was 0.686 and the relative viability (NCI-H2405; first compound 1 µM) was 0.665. The relative viability (PC-14; first compound 0.01 µM) was 0.843, the relative viability (PC-14; first compound 0.03162 µM) was 0.744 and the relative viability (PC-14; first compound 0.1 µM) was 0.745. The relative viability (PC-14; first compound 0.3162 µM) was 0.775, the relative viability (PC-14; first compound 1 µM) was 0.832 and the relative viability (LOU-NH91; first compound 0.01 µM) was 0.801. It also gave a relative viability (LOU-NH91; first compound 0.03162 µM) of 0.798, a relative viability (LOU-NH91; first compound 0.1 µM) of 0.782 and a relative viability (LOU-NH91; first compound 0.3162 µM) of 0.821. The relative viability (LOU-NH91; first compound 1 µM) was 0.767, the relative viability (NCI-H1793; first compound 0.01 µM) was 0.372 and the relative viability (NCI-H1793; first compound 0.03162 µM) was 0.411. For the same molecule, the relative viability (NCI-H1793; first compound 0.1 µM) was 0.504, the relative viability (NCI-H1793; first compound 0.3162 µM) was 0.406 and the relative viability (NCI-H1793; first compound 1 µM) was 0.38. For the same molecule, the relative viability (201T; first compound 0.01 µM) was 0.708, the relative viability (201T; first compound 0.03162 µM) was 0.683 and the relative viability (201T; first compound 0.1 µM) was 0.69. It also gave a relative viability (201T; first compound 0.3162 µM) of 0.721, a relative viability (201T; first compound 1 µM) of 0.701 and a relative viability (NCI-H520; first compound 0.01 µM) of 1.14. For the same molecule, the relative viability (NCI-H520; first compound 0.03162 µM) was 0.594, the relative viability (NCI-H520; first compound 0.1 µM) was 0.768 and the relative viability (NCI-H520; first compound 0.3162 µM) was 0.717. The relative viability (NCI-H520; first compound 1 µM) was 0.732, the relative viability (SW 900; first compound 0.03162 µM) was 0.922 and the relative viability (SW 900; first compound 0.1 µM) was 0.949. The relative viability (SW 900; first compound 0.3162 µM) was 0.858, the relative viability (SW 900; first compound 1 µM) was 0.82 and the relative viability (NCI-H1650; first compound 0.01 µM) was 0.526. The relative viability (NCI-H1650; first compound 0.03162 µM) was 0.643, the relative viability (NCI-H1650; first compound 0.1 µM) was 0.782 and the relative viability (NCI-H1650; first compound 0.3162 µM) was 0.571. It also gave a relative viability (NCI-H1650; first compound 1 µM) of 0.517.

Source: the supplement of paper PMC10307832
